Measured values: ChEMBL document CHEMBL1143892, “Oligo(tyrosine sulfate)s as heparin pentasaccharide mimic: evaluation by surface noncovalent affinity mass spectrometry” (2008)
Non-standard residues stand in square brackets, D forms with d. Residues, ends and D or L forms follow the SMILES beside them. *: point of attachment. X1 = O=C([C@H](Cc1ccc(OS(=O)(=O)O)cc1)NS(=O)(=O)O)*; sY = N[C@@H](Cc1ccc(OS(=O)(=O)O)cc1)C(=O)O

What was measured:
Format in all cases: functional
Plasma [1] = test: Anticoagulant activity in human plasma assessed as activated partial thromboplastin time at 0.1 mg/ml after 15 mins
Plasma [2] = test: Anticoagulant activity in human plasma assessed as activated partial thromboplastin time at 0.01 mg/ml after 15 mins
Plasma [3] = test: Anticoagulant activity in human plasma assessed as activated partial thromboplastin time at 0.3 mg/ml after 15 mins
Plasma [4] = test: Anticoagulant activity in human plasma assessed as activated partial thromboplastin time at 0.03 mg/ml after 15 mins
Plasma [5] = test: Anticoagulant activity in human plasma assessed as activated partial thromboplastin time at 1 mg/ml after 15 mins

Structure (SMILES)	APTT (Plasma [1])	APTT (Plasma [2])	APTT (Plasma [3])	APTT (Plasma [4])	APTT (Plasma [5])
N[C@@H](Cc1ccc(OS(=O)(=O)[O-])cc1)C(=O)N[C@@H](Cc1ccc(OS(=O)(=O)[O-])cc1)C(=O)N[C@@H](Cc1ccc(OS(=O)(=O)[O-])cc1)C(=O)N[C@@H](Cc1ccc(OS(=O)(=O)[O-])cc1)C(=O)N[C@@H](Cc1ccc(OS(=O)(=O)[O-])cc1)C(=O)N[C@@H](Cc1ccc(OS(=O)(=O)[O-])cc1)C(=O)N[C@@H](Cc1ccc(OS(=O)(=O)[O-])cc1)C(=O)O.[Na+].[Na+].[Na+].[Na+].[Na+].[Na+].[Na+] (H-[sY][sY][sY][sY][sY][sY][sY]-OH)	31 s	30.4 s	32.4 s	30.5 s	40.6 s
N[C@@H](Cc1ccc(OS(=O)(=O)[O-])cc1)C(=O)N[C@@H](Cc1ccc(OS(=O)(=O)[O-])cc1)C(=O)N[C@@H](Cc1ccc(OS(=O)(=O)[O-])cc1)C(=O)N[C@@H](Cc1ccc(OS(=O)(=O)[O-])cc1)C(=O)N[C@@H](Cc1ccc(OS(=O)(=O)[O-])cc1)C(=O)N[C@@H](Cc1ccc(OS(=O)(=O)[O-])cc1)C(=O)N[C@@H](Cc1ccc(OS(=O)(=O)[O-])cc1)C(=O)N[C@@H](Cc1ccc(OS(=O)(=O)[O-])cc1)C(=O)N[C@@H](Cc1ccc(OS(=O)(=O)[O-])cc1)C(=O)N[C@@H](Cc1ccc(OS(=O)(=O)[O-])cc1)C(=O)O.[Na+].[Na+].[Na+].[Na+].[Na+].[Na+].[Na+].[Na+].[Na+].[Na+] (H-[sY][sY][sY][sY][sY][sY][sY][sY][sY][sY]-OH)	41 s	30.6 s	90.5 s	32.1 s	153.7 s
O=C(O)[C@H](Cc1ccc(OS(=O)(=O)[O-])cc1)NC(=O)[C@H](Cc1ccc(OS(=O)(=O)[O-])cc1)NC(=O)[C@H](Cc1ccc(OS(=O)(=O)[O-])cc1)NC(=O)[C@H](Cc1ccc(OS(=O)(=O)[O-])cc1)NC(=O)[C@H](Cc1ccc(OS(=O)(=O)[O-])cc1)NC(=O)[C@H](Cc1ccc(OS(=O)(=O)[O-])cc1)NS(=O)(=O)[O-].[Na+].[Na+].[Na+].[Na+].[Na+].[Na+].[Na+] (X1-[sY][sY][sY][sY][sY]-OH)	32.3 s	30.8 s	35.7 s	31.2 s	64.8 s
O=C(O)[C@H](Cc1ccc(OS(=O)(=O)[O-])cc1)NC(=O)[C@H](Cc1ccc(OS(=O)(=O)[O-])cc1)NC(=O)[C@H](Cc1ccc(OS(=O)(=O)[O-])cc1)NC(=O)[C@H](Cc1ccc(OS(=O)(=O)[O-])cc1)NC(=O)[C@H](Cc1ccc(OS(=O)(=O)[O-])cc1)NC(=O)[C@H](Cc1ccc(OS(=O)(=O)[O-])cc1)NC(=O)[C@H](Cc1ccc(OS(=O)(=O)[O-])cc1)NC(=O)[C@H](Cc1ccc(OS(=O)(=O)[O-])cc1)NC(=O)[C@H](Cc1ccc(OS(=O)(=O)[O-])cc1)NS(=O)(=O)[O-].[Na+].[Na+].[Na+].[Na+].[Na+].[Na+].[Na+].[Na+].[Na+].[Na+] (X1-[sY][sY][sY][sY][sY][sY][sY][sY]-OH)	36.5 s	31.9 s	45.7 s	33.1 s	95.8 s
O=C([O-])[C@H](Cc1ccc(OS(=O)(=O)[O-])cc1)NC(=O)[C@H](Cc1ccc(OS(=O)(=O)[O-])cc1)NC(=O)[C@H](Cc1ccc(OS(=O)(=O)[O-])cc1)NC(=O)[C@H](Cc1ccc(OS(=O)(=O)[O-])cc1)NC(=O)[C@H](Cc1ccc(OS(=O)(=O)[O-])cc1)NC(=O)[C@H](Cc1ccc(OS(=O)(=O)[O-])cc1)NC(=O)[C@H](Cc1ccc(OS(=O)(=O)[O-])cc1)NC(=O)[C@H](Cc1ccc(OS(=O)(=O)[O-])cc1)NC(=O)[C@H](Cc1ccc(OS(=O)(=O)[O-])cc1)NC(=O)[C@H](Cc1ccc(OS(=O)(=O)[O-])cc1)NC(=O)[C@H](Cc1ccc(OS(=O)(=O)[O-])cc1)NC(=O)[C@H](Cc1ccc(OS(=O)(=O)[O-])cc1)NS(=O)(=O)[O-].[Na+].[Na+].[Na+].[Na+].[Na+].[Na+].[Na+].[Na+].[Na+].[Na+].[Na+].[Na+].[Na+].[Na+] (X1-[sY][sY][sY][sY][sY][sY][sY][sY][sY][sY][sY]-OH)	50.3 s	32 s	75.7 s	37.6 s	172.1 s
